# Source: patent publication US5157049A, “Method of treating cancers sensitive to treatment with water soluble derivatives of taxol” (The United States of America as represented by the …, priority 1991, dated 1992)
# “Also recorded” adds a separate entry of the source. Counter-ions that a name gives are not always drawn.
# Legend:
# tubulin = details: mechanism of action, Horwitz; cited from earlier work
# [1] = water; background statement; cited from earlier work
# [2] = a number of test systems; cited from earlier work
# B16 Melanoma = assay: Antitumor activity in the B16 melanoma system (NCI screen); details: B16, Q01D × 09
# Protocol: (§1) Another approach to make basic derivatives is based on the concept of taking an existing hydrolysable derivative and further modifying it to form a derivative that allows for stepwise hydrolysis.
# Antitumor Activity in the B16 Melanoma System^a
# (§2) ^a Screening was carried out under the auspices of the National Cance
# (§3) Institute. For detailed explanations of procedures and data, see
# (§4) Instruction 14, Screening Data Summary Interpretation and Outline of
# (§5) Current Screen, Drug Evaluation Branch, Developmental Therapeutics
# (§6) Program, Division of Cancer Treatment, National Cancer Institute,
# (§7) Bethesda, Maryland 20892.
# (§8) ^b Q01D × 09. Single dose for 9 days; given in milligrams per
# (§9) kilogram body weight per injection.
# (§10) ^c Abbreviations: survivors day 4, live animals on the fourth day of
# (§11) testing/total animal; wt diff, g (T - C), the difference in body weight i
# (§12) grams between test and control animals; % T/C, the median lifetime of tes
# (§13) animals divided by the median lifetime of control animals, times 100; for
# (§14) the solid tumor system % T/C is 100 × (change in treated tumor wt 1
# (§15) day 11 - day 0)/change in control tumor wt.) if the tumor grows or 100
# (§16) × (change in treated tumor wt./initial treated tumor wt.) if the
# (§17) tumor regresses; cures, number of live animals on the last day of
# (§18) evaluation for the B16 melanoma system (day 60) or number of animals
# (§19) without measurable tumor on day 11 for the MX1 mammary tumor system.
# [3] = numerous studies; cited from earlier work
# Aqueous solubility = details: water
# [4] = tested on: Human MX-1 Mammary Tumor Xenograft; assay: Human MX-1 mammary tumor xenograft (3MBG5) assay; details: MX-1 xenograft; for % T/C (tumor weight change): day 11
# Protocol: as §1, §2, §3, §4, §5, §6, §7, §8, §9, §10, §11, §12, §13, §14, §15, §16, §17, §18, §19
smiles,measurement,setting,value
"CC(=O)O[C@H]1C(=O)[C@@]2(C)[C@H]([C@H](OC(=O)c3ccccc3)[C@]3(O)C[C@H](OC(=O)[C@H](O)[C@@H](NC(=O)c4ccccc4)c4ccccc4)C(C)=C1C3(C)C)[C@]1(OC(C)=O)CO[C@@H]1C[C@@H]2O [Taxol, taxol]",promotion of tubulin assembly (in words),tubulin,"promoting tubulin assembly into stable aggregated structures which resist depolymerization by dilution, calcium ion, cold, and a number of microtubule-disrupting drugs"
same,aqueous solubility of taxol (in words),[1],essentially insoluble in water; also recorded: extremely low aqueous solubility
same,in vivo activity (in words),[2],strong in vivo activity
same,% T/C (median lifetime),B16 Melanoma; 5 mg/kg per injection,175%
same,Survivors Day 4,B16 Melanoma; 5 mg/kg per injection,10/10
same,"WT Diff, g (T - C)",B16 Melanoma; 5 mg/kg per injection,-0.2 g
same,% T/C (median lifetime),B16 Melanoma; 10 mg/kg per injection,139%
same,Survivors Day 4,B16 Melanoma; 10 mg/kg per injection,10/10
same,"WT Diff, g (T - C)",B16 Melanoma; 10 mg/kg per injection,0 g
same,% T/C (median lifetime),B16 Melanoma; 20 mg/kg per injection,96%
same,Survivors Day 4,B16 Melanoma; 20 mg/kg per injection,10/10
same,"WT Diff, g (T - C)",B16 Melanoma; 20 mg/kg per injection,-0 g
same,% T/C (median lifetime),B16 Melanoma; 40 mg/kg per injection,TOXIC
same,Survivors Day 4,B16 Melanoma; 40 mg/kg per injection,10/10
same,"WT Diff, g (T - C)",B16 Melanoma; 40 mg/kg per injection,-1.2 g
same,cytotoxicity (in words),[3],highly cytotoxic
"CC(=O)O[C@H]1C(=O)[C@@]2(C)[C@H]([C@H](OC(=O)c3ccccc3)[C@]3(O)C[C@H](OC(=O)[C@H](OC(=O)CCCC(=O)NCCCN(C)C)[C@@H](NC(=O)c4ccccc4)c4ccccc4)C(C)=C1C3(C)C)[C@]1(OC(C)=O)CO[C@@H]1C[C@@H]2O [Example 25, HCl-Salt]",% T/C (median lifetime),B16 Melanoma; 1.2 mg/kg per injection,123%
same,Survivors Day 4,B16 Melanoma; 1.2 mg/kg per injection,10/10
same,"WT Diff, g (T - C)",B16 Melanoma; 1.2 mg/kg per injection,-0.1 g
same,% T/C (median lifetime),B16 Melanoma; 2.5 mg/kg per injection,129%
same,Survivors Day 4,B16 Melanoma; 2.5 mg/kg per injection,10/10
same,"WT Diff, g (T - C)",B16 Melanoma; 2.5 mg/kg per injection,-0.1 g
same,% T/C (median lifetime),B16 Melanoma; 5 mg/kg per injection,188%
same,Survivors Day 4,B16 Melanoma; 5 mg/kg per injection,10/10
same,"WT Diff, g (T - C)",B16 Melanoma; 5 mg/kg per injection,0.1 g
same,% T/C (median lifetime),B16 Melanoma; 10 mg/kg per injection,352%
same,Survivors Day 4,B16 Melanoma; 10 mg/kg per injection,10/10
same,"WT Diff, g (T - C)",B16 Melanoma; 10 mg/kg per injection,-0.1 g
same,cures (live animals day 60),B16 Melanoma; 10 mg/kg per injection,5
same,% T/C (median lifetime),B16 Melanoma; 20 mg/kg per injection,352%
same,Survivors Day 4,B16 Melanoma; 20 mg/kg per injection,10/10
same,"WT Diff, g (T - C)",B16 Melanoma; 20 mg/kg per injection,0 g
same,cures (live animals day 60),B16 Melanoma; 20 mg/kg per injection,6
same,aqueous solubility (in words),Aqueous solubility,good solubility
same,solubility,Aqueous solubility,~10000 µg/mL
same,Survivors Day 4,[4]; 2.5 mg/kg per injection,6/6
same,"WT Diff, g (T - C)",[4]; 2.5 mg/kg per injection,-0.6 g
same,% T/C (tumor weight change),[4]; 2.5 mg/kg per injection,22%
same,Survivors Day 4,[4]; 5 mg/kg per injection,6/6
same,"WT Diff, g (T - C)",[4]; 5 mg/kg per injection,0.1 g
same,% T/C (tumor weight change),[4]; 5 mg/kg per injection,1%
same,Survivors Day 4,[4]; 10 mg/kg per injection,6/6
same,"WT Diff, g (T - C)",[4]; 10 mg/kg per injection,-2.2 g
same,% T/C (tumor weight change),[4]; 10 mg/kg per injection,1%
same,Survivors Day 4,[4]; 20 mg/kg per injection,5/6
same,"WT Diff, g (T - C)",[4]; 20 mg/kg per injection,0.3 g
same,cures (animals without measurable tumor on day 11),[4]; 20 mg/kg per injection,5
same,% T/C (tumor weight change),"[4]; 20 mg/kg per injection, negative = regression",-100%
same,Survivors Day 4,[4]; 40 mg/kg per injection,5/6
same,"WT Diff, g (T - C)",[4]; 40 mg/kg per injection,-5.9 g
same,cures (animals without measurable tumor on day 11),[4]; 40 mg/kg per injection,5
same,% T/C (tumor weight change),"[4]; 40 mg/kg per injection, negative = regression",-100%
